“And” between values parts separate entries of the source, which are not always exact repeats. Identical values can stand only once. Like-named read-outs stand apart in the source and are kept apart here.
Assay: Pharmacokinetic/toxicokinetic profile of RTX after intravesical instillation in dogs
Assay type: in vivo, dog
Description: Local tolerance and the pharmacokinetic (PK), and toxicokinetic (TK) profile of RTX in dogs was determined after a single instillation of RTX into the bladder of dogs (n=6). The RTX formulations were prepared using aseptic techniques in a biological safety cabinet (BSC) by mixing the appropriate amount of diluent with the appropriate amount of RTX. Dosing formulation concentrations used were 1 and 10 mcg/mL.
Three male and three female dogs ranging in weight from 5.95 to 8.60 kg were used in the study. The dogs were assigned into Group 1 (receiving a dose of 1 mcg/mL RTX) or Group 2 (receiving a dose of 10 mcg/mL RTX) as shown in the Table 3 below.
RTX was administered via intravesical instillation into the urinary bladder. The animals were given a single dose of 25 or 250 mcg/dose in a total volume of 25 mL on Day 1 over a period of 1 hour (±5 minutes). RTX and diluent were administered to the dogs under general anesthesia via a Foley catheter placed into the bladder for 1 hour (±5 minutes).
Blood samples were collected from all animals on Day 1 pre-dose and at 0.5, 1, 2, 4, 6, 12, 24, 36, 48, 60, and 72 hours post-dose. The toxicokinetic (TK) parameters were determined for RTX, and if appropriate, the metabolites, from mean concentration-time data.
Cmax is the observed maximum plasma concentration from the start of dosing. Tmax is the time to reach the Cmax. AUC(0-T) is the area under the plasma concentration-time curve from time zero to the last measurable time point calculated by the linear trapezoidal rule.

[1] = male dogs 1003, 1005 individual, 250 mcg intravesical
[2] = male dogs, 250 mcg intravesical

SMILES: C=C(C)[C@]12C[C@@H](C)[C@@]34O[C@](Cc5ccccc5)(O[C@@H]1[C@@H]3C=C(COC(=O)Cc1ccc(O)c(OC)c1)C[C@]1(O)C(=O)C(C)=C[C@@H]41)O2 [RTX, resiniferatoxin]
- concentration at 48 h (female, dog, plasma, other: intravesical instillation, 250 mcg, female dogs, 250 mcg intravesical, 48 h, read-out: Plasma concentration of RTX, Mean): 0 ng/mL
- time by which RTX plasma concentrations fell to zero (male and female dogs, 250 mcg, post-dose): ≤ 4 h
- absorption into the systemic circulation (male and female dogs, single 250 mcg intravesical instillation): absorbed rapidly
- Plasma concentration of RTX (male dog 1001, 25 mcg intravesical, 0.5 h): BQL (*BQL—Below quantifiable limit (<50.0 pg/mL); adequate signal-to-noise enabled reporting value as estimate)
- Plasma concentration of RTX (male dog 1001, 25 mcg intravesical, 2 h): BQL (*BQL—Below quantifiable limit (<50.0 pg/mL); adequate signal-to-noise enabled reporting value as estimate)
- Plasma concentration of RTX (male dog 1001, 25 mcg intravesical, 4 h): BQL (*BQL—Below quantifiable limit (<50.0 pg/mL); adequate signal-to-noise enabled reporting value as estimate)
- Plasma concentration of RTX (male dog 1001, 25 mcg intravesical, 6 h): BQL (*BQL—Below quantifiable limit (<50.0 pg/mL); adequate signal-to-noise enabled reporting value as estimate)
- Plasma concentration of RTX (male dog 1001, 25 mcg intravesical, 12 h): BQL (*BQL—Below quantifiable limit (<50.0 pg/mL); adequate signal-to-noise enabled reporting value as estimate)
- Plasma concentration of RTX (male dog 1001, 25 mcg intravesical, 24 h): BQL (*BQL—Below quantifiable limit (<50.0 pg/mL); adequate signal-to-noise enabled reporting value as estimate)
- Plasma concentration of RTX (male dog 1001, 25 mcg intravesical, 36 h): BQL (*BQL—Below quantifiable limit (<50.0 pg/mL); adequate signal-to-noise enabled reporting value as estimate)
- Plasma concentration of RTX (male dog 1001, 25 mcg intravesical, 48 h): BQL (*BQL—Below quantifiable limit (<50.0 pg/mL); adequate signal-to-noise enabled reporting value as estimate)
- Plasma concentration of RTX (male dog 1001, 25 mcg intravesical, 60 h): BQL (*BQL—Below quantifiable limit (<50.0 pg/mL); adequate signal-to-noise enabled reporting value as estimate)
- Plasma concentration of RTX (male dog 1001, 25 mcg intravesical, 72 h): BQL (*BQL—Below quantifiable limit (<50.0 pg/mL); adequate signal-to-noise enabled reporting value as estimate)
- Plasma concentration of RTX (male dog 1001, 25 mcg intravesical, Predose): BQL (*BQL—Below quantifiable limit (<50.0 pg/mL); adequate signal-to-noise enabled reporting value as estimate)
- AUC(0-T) [1]: 365 pg·h/mL
- AUC(0-T)/Dose [1]: 1.42 pg·h/mL/µg and 1.46 pg·h/mL/µg
- Cmax [1]: 0.44 ng/mL
- Cmax/Dose [1]: 1.06 pg/mL/µg and 1.76 pg/mL/µg
- Plasma concentration of RTX (male dogs 1003, 1005 individual, 250 mcg intravesical, 0.5 h): 440 pg/mL
- Plasma concentration of RTX (male dogs 1003, 1005 individual, 250 mcg intravesical, 1 h): 151 pg/mL
- Plasma concentration of RTX (male dogs 1003, 1005 individual, 250 mcg intravesical, 2 h): 63.3 pg/mL
- Plasma concentration of RTX (male dogs 1003, 1005 individual, 250 mcg intravesical, 4 h): 0.00 pg/mL
- Plasma concentration of RTX (male dogs 1003, 1005 individual, 250 mcg intravesical, 6 h): 0.00 pg/mL
- Plasma concentration of RTX (male dogs 1003, 1005 individual, 250 mcg intravesical, 12 h): 0.00 pg/mL
- Plasma concentration of RTX (male dogs 1003, 1005 individual, 250 mcg intravesical, 24 h): 0.00 pg/mL
- Plasma concentration of RTX (male dogs 1003, 1005 individual, 250 mcg intravesical, 36 h): 0.00 pg/mL
- Plasma concentration of RTX (male dogs 1003, 1005 individual, 250 mcg intravesical, 48 h): 0.00 pg/mL
- Plasma concentration of RTX (male dogs 1003, 1005 individual, 250 mcg intravesical, 60 h): 0.00 pg/mL
- Plasma concentration of RTX (male dogs 1003, 1005 individual, 250 mcg intravesical, 72 h): 0.00 pg/mL
- Plasma concentration of RTX (male dogs 1003, 1005 individual, 250 mcg intravesical, Predose): 0.00 pg/mL
- AUC(0-T)/Dose, Mean [2]: 1.44 pg·h/mL/µg
- Cmax/Dose, Mean [2]: 1.41 pg/mL/µg
- Plasma concentration of RTX, Mean (male dogs, 250 mcg intravesical, Predose): 0.00 pg/mL
- AUC(0-t) (male, dog, plasma, 250 ug, male dogs 1003, 1005 individual, 250 mcg intravesical, read-out: AUC(0-T)): 0.356 ng·h/mL
- Cmax (male, dog, plasma, 250 ug, male dogs 1003, 1005 individual, 250 mcg intravesical, read-out: Cmax): 0.264 ng/mL
- Tmax (male, dog, plasma, 250 ug, male dogs 1003, 1005 individual, 250 mcg intravesical, read-out: Tmax): 60 min
- AUC(0-t) (male, dog, plasma, 250 ug, male dogs, 250 mcg intravesical, read-out: AUC(0-T), Mean): 0.361 ± 0.00636 ng·h/mL
- Cmax (male, dog, plasma, 250 ug, male dogs, 250 mcg intravesical, read-out: Cmax, Mean): 0.352 ± 0.124 ng/mL
- Tmax (male, dog, plasma, 250 ug, male dogs, 250 mcg intravesical, read-out: Tmax, Mean): 45 ± 21.2 min
- Tmax (male, dog, plasma, other: intravesical instillation, 250 ug, male dogs, 250 mcg intravesical, read-out: Tmax, Mean): 45 min
- concentration at 1 h (male, dog, plasma, other: intravesical instillation, 25 mcg, male dog 1001, 25 mcg intravesical, 1 h, read-out: Plasma concentration of RTX): 0.0155 ng/mL
- concentration at 0.5 h (male, dog, plasma, other: intravesical instillation, 250 mcg, male dogs 1003, 1005 individual, 250 mcg intravesical, 0.5 h, read-out: Plasma concentration of RTX): 0.257 ng/mL
- concentration at 1 h (male, dog, plasma, other: intravesical instillation, 250 mcg, male dogs 1003, 1005 individual, 250 mcg intravesical, 1 h, read-out: Plasma concentration of RTX): 0.264 ng/mL
- concentration at 2 h (male, dog, plasma, other: intravesical instillation, 250 mcg, male dogs 1003, 1005 individual, 250 mcg intravesical, 2 h, read-out: Plasma concentration of RTX): 0.0597 ng/mL
- concentration at 4 h (male, dog, plasma, other: intravesical instillation, 250 mcg, male dogs 1003, 1005 individual, 250 mcg intravesical, 4 h, read-out: Plasma concentration of RTX): 0 ng/mL
- concentration at 6 h (male, dog, plasma, other: intravesical instillation, 250 mcg, male dogs 1003, 1005 individual, 250 mcg intravesical, 6 h, read-out: Plasma concentration of RTX): 0 ng/mL
- concentration at 12 h (male, dog, plasma, other: intravesical instillation, 250 mcg, male dogs 1003, 1005 individual, 250 mcg intravesical, 12 h, read-out: Plasma concentration of RTX): 0 ng/mL
- concentration at 24 h (male, dog, plasma, other: intravesical instillation, 250 mcg, male dogs 1003, 1005 individual, 250 mcg intravesical, 24 h, read-out: Plasma concentration of RTX): 0 ng/mL
- concentration at 36 h (male, dog, plasma, other: intravesical instillation, 250 mcg, male dogs 1003, 1005 individual, 250 mcg intravesical, 36 h, read-out: Plasma concentration of RTX): 0 ng/mL
- concentration at 48 h (male, dog, plasma, other: intravesical instillation, 250 mcg, male dogs 1003, 1005 individual, 250 mcg intravesical, 48 h, read-out: Plasma concentration of RTX): 0 ng/mL
- concentration at 60 h (male, dog, plasma, other: intravesical instillation, 250 mcg, male dogs 1003, 1005 individual, 250 mcg intravesical, 60 h, read-out: Plasma concentration of RTX): 0 ng/mL
- concentration at 72 h (male, dog, plasma, other: intravesical instillation, 250 mcg, male dogs 1003, 1005 individual, 250 mcg intravesical, 72 h, read-out: Plasma concentration of RTX): 0 ng/mL
- concentration at 0.5 h (male, dog, plasma, other: intravesical instillation, 250 mcg, male dogs, 250 mcg intravesical, 0.5 h, read-out: Plasma concentration of RTX, Mean): 0.349 ng/mL
- concentration at 1 h (male, dog, plasma, other: intravesical instillation, 250 mcg, male dogs, 250 mcg intravesical, 1 h, read-out: Plasma concentration of RTX, Mean): 0.208 ng/mL
- concentration at 2 h (male, dog, plasma, other: intravesical instillation, 250 mcg, male dogs, 250 mcg intravesical, 2 h, read-out: Plasma concentration of RTX, Mean): 0.0615 ng/mL
- concentration at 4 h (male, dog, plasma, other: intravesical instillation, 250 mcg, male dogs, 250 mcg intravesical, 4 h, read-out: Plasma concentration of RTX, Mean): 0 ng/mL
- concentration at 6 h (male, dog, plasma, other: intravesical instillation, 250 mcg, male dogs, 250 mcg intravesical, 6 h, read-out: Plasma concentration of RTX, Mean): 0 ng/mL
- concentration at 12 h (male, dog, plasma, other: intravesical instillation, 250 mcg, male dogs, 250 mcg intravesical, 12 h, read-out: Plasma concentration of RTX, Mean): 0 ng/mL
- concentration at 24 h (male, dog, plasma, other: intravesical instillation, 250 mcg, male dogs, 250 mcg intravesical, 24 h, read-out: Plasma concentration of RTX, Mean): 0 ng/mL
- concentration at 36 h (male, dog, plasma, other: intravesical instillation, 250 mcg, male dogs, 250 mcg intravesical, 36 h, read-out: Plasma concentration of RTX, Mean): 0 ng/mL
- concentration at 48 h (male, dog, plasma, other: intravesical instillation, 250 mcg, male dogs, 250 mcg intravesical, 48 h, read-out: Plasma concentration of RTX, Mean): 0 ng/mL
- concentration at 60 h (male, dog, plasma, other: intravesical instillation, 250 mcg, male dogs, 250 mcg intravesical, 60 h, read-out: Plasma concentration of RTX, Mean): 0 ng/mL
- concentration at 72 h (male, dog, plasma, other: intravesical instillation, 250 mcg, male dogs, 250 mcg intravesical, 72 h, read-out: Plasma concentration of RTX, Mean): 0 ng/mL

Source: US20230270713A1, “Administration of Resiniferatoxin For Treatment of Bladder Pain or Bladder Cancer” (Sorrento Therapeutics, Inc., priority 2020, published 2023)
